Data as given in patent publication US5262403A, “Glycosaminoglycan derivatives and their use as inhibitors of tumor invasiveness of metastatic profusion-II” (priority 1990, dated 1993).
“Also recorded” adds a separate entry of the source.

What was measured:
B16 melanoma heparanase [1] = assay: HPLC assay for heparanase inhibition (14C-HS degradation, gel-permeation chromatography); format: biochemical, mouse; conditions: 1 mg/ml in incubation mixture, crude heparanase of 10^6 B16-BL6 cells, 37° C., 6 h
Experimental: A high-speed gel-permeation chromatography system was equipped with a 0.70×75 cm column of Fractogel TSK-HW55(S). Elution was performed with 0.2M NaCl at a flow rate of 1.0 ml/min at 55° C. Each 0.5-ml fraction corresponding to 30-sec elution was collected, mixed with 3 ml of Hydrofluor and its radioactivity determined. Panel A, ^14 C-HS was incubated with heat-inactivated crude heparanase (10^6 B16-BL6-melanoma cell equivalents) at 37° C. for 6 h, and analyzed. B, same incubation as A except that the enzyme was not heat-inactivated.
High-speed gel permeation chromatography was performed as described previously (Irimura et al., (1983a) Anal. Biochem., V 130, pp 461-468) using a Constametric III (LDC-Milton Roy, Riviera Beach, Fla.) with a single 0.7×75 cm stainless steel column packed with Fractogel TSK HW-55(S). Elution was accomplished with 0.2M sodium chloride at flow rates of 1.0 ml/min or 0.75 ml/min. Absorption at 210 nm was monitored for the analogs of chemically modified heparin. For the qualitative examination of radiolabeled HS-degradation products, each fraction corresponding to 30-sec elution was collected into plastic scintillation vials, and radioactivity in each vial was determined after the fraction was mixed with 3.0 ml of Hydrofluor (National Diagnostics, Somerville, N.J.).
Cell extracts were prepared in 5 mM Tris-HCl buffer, pH 7.4, containing 0.25M sucrose, 50 μM calcium chloride, 10 μM phenylmethylsulfonylfluoride, and 0.2% Nonidet P-40 (Irimura et al., (1983). The melanoma extracts were stored frozen at -80° C. and used as crude heparanase.
High-Performance Liquid Chromatography [HPLC] Assay for Heparanase. Fifty microliters of melanoma extract (equivalent to 10^6 cells) were mixed with chemically modified heparin (5 mg/ml in water), 50 μl of 4×heparanase assay buffer (0.4 sodium phosphate buffer, pH 5.8, containing 0.4% Triton X-100, 0.6M sodium chloride, and 0.4% sodium azide) and about 3000 cpm of ^14 C-HS.

B16 melanoma heparanase [2] = assay: Solid-phase assay for heparanase inhibitors (3H-HS-agarose beads); format: biochemical, mouse; conditions: B16-BL6 lysate of 10^6 cells, various concentrations, 37° C.
Experimental: The measurements were performed by incubating B16-BL6 melanoma heparanase. The measurements were performed by incubating B16-BL6 melanoma cell lysates equivalent to 10^6 cells with a suspension of ^3 H-HS-agarose beads prepared by partial N-desulfation and ^3 H-acetylation (approximately 20% suspension), and various concentrations of heparanase inhibitors at 37° C. for 24 hr with gentle mixing.
Source of Heparanase. Highly invasive mouse B16 melanoma (B16-BL6) cells were provided by Dr. I. J. Fidler, (M.D. Anderson Hospital, Houston, Tex.) and were cultured as previously described (Irimura et al., (1983a) and Irimura et al. (1984)). Cell extracts were prepared in 5 mM Tris-HCl buffer, pH 7.4, containing 0.25M sucrose, 50 μM calcium chloride, 10 μM phenylmethylsulfonylfluoride, and 0.2% Nonidet P-40 (Irimura et al., (1983). The melanoma extracts were stored frozen at -80° C. and used as crude heparanase.
Preparation of Solid-phase Substrates for Heparanase and Inhibitor Assays.
Solid-phase Assays for Heparanase and Heparanase Inhibitors. ^3 H-HS-agarose was suspended in Dulbecco's phosphate buffered saline (DPBS) at about 20% (v/v). The incubation conditions for the solid-phase assay were identical to those of the HPLC assay, except that 75 μl of the ^3 H-HS-agarose suspension was used instead of the HS so that the incubation mixture consisted of B16 melanoma extract, chemically modified heparins, 4×heparanase assay buffer, and ^3 H-HS-agarose suspension. After incubation, the reaction mixture was placed on ice, chilled 5% trichloroacetic acid (50 ul) added, the mixture incubated for 10 min, and centrifuged. Radioactivity in the supernatant and the pellet was determined separately after mixing with Hydrofluor.

blood coagulation = assay: Anticoagulation activity by USP standard assay; conditions: % of the anticoagulation activity of unmodified heparin
B16-BL6 melanoma = assay: Release of 35S-labeled substances from lung capillary endothelial extracellular matrix by melanoma cells; format: cell-based, mouse; conditions: for degradation of sulfated molecules of endothelial matrix by melanoma cells: 35S-labeled matrix, B16-BL6 cells, 37° C., 18 hours
Experimental: FIG. 6: Effects of chemically modified heparins on the release of ^35 S labeled substances from the extracellular matrix of mouse lung capillary endothelial cells in vitro. […] (See: Nakajima et al., Science 220:611-613, 1983, for the methods.)
Effects of chemically modified heparins on the release of ^35 S-labeled polysaccharides from the extra-cellular matrix of mouse lung endothelial cells were studied in vitro. The endothelial cells isolated from mouse lung capillary were grown in the presence of ^35 S-sulfate, and the extracellular matrix-like material was isolated on multiwell plastic tissue culture plates by hypotonic lysis of the cells. The matrices (1 cm diameter) were incubated with mouse B16-BL6 melanoma at 37° C. for 18 hours. The released radioactivity was counted.

B16-BL6 melanoma cells [3] = assay: Experimental blood-borne lung colonization, melanoma cells preincubated with heparins; format: in vivo, C57BL/6 mice; conditions: for Number of colonies (median), Exp 2 / Number of colonies (median), Exp 1 / Number of colonies, Exp 1 (individual mice): cells incubated with 500 ug/ml at 4° C. for 2 hr before i.v. injection, lung, 20 days; for Number of colonies, Exp 1 (individual mice): 9 mice/group
Experimental: Experimental Metastatic Lung Colonization of Melanoma Cells. Male C57BL/6 mice 4 to 6 weeks old were obtained from Charles River, Inc. (Kingston, Md.) and quarantined for 2 weeks. Animals were fed normal rodent chow and unchlorinated spring water. B16-BL6 cells were grown to subconfluence, detached from plastic dishes by incubating in 2 mM EDTA, 0.14M NaCl and 10 mM sodium phosphatebuffer, pH 7.4, for 5-10 min, and suspended in a 1:1 mixture of Dulbecco's modified minimum essential medium and Ham's F12 medium. […] Treated or untreated cells (5×10^4 /0.1 ml) were injected intravenously to each mouse. Mice were killed 20 days later and autopsied. The numbers of pulmonary tumor nodules were counted after the lung was perfused via the trachea with 4% formalin in Dulbecco's phosphate buffered saline. Extrapulmonary tumor formation was assessed in each animal and recorded.

B16 melanoma cells = assay: Blood-borne lung colonization, mice treated i.v. with heparins; format: in vivo, C57BL/6 mice; conditions: for Number of lung colonies, Median: 0.1 ml of 5.0 mg/ml i.v. 4 hr before and 20 hr after inoculation of 5×10^4 cells, 20 days; for establishment of metastatic tumor colonies in the lungs, in words: i.v. treatment of mice
Experimental: Chemically modified heparins were tested in mice as inhibitors of blood-borne lung colonization by melanoma cells. Male C57BL/6 mice 4 to 6 weeks old were obtained from Charles River, Inc. and quarantined for 2 weeks. The mice were intravenously inoculated with 5×10^4 B16-BL melanoma cells. Treated mice were intravenously injected with 0.1 ml each of heparin or chemically modified heparin (5.0 mg/ml) 4 hr before and 20 hr after inoculation with the melanoma cells. The chemically modified heparins used were: N-acetylated N-desulfated heparin; carboxyl-reduced heparin; and N-resulfated N, O-desulfated heparin.
Mice were killed 20 days after tumor inoculation and autopsied. The numbers of pulmonary tumor colonies were counted after the lungs were perfused via the trachea with 4% formalin in Dulbecco's phosphate-buffered saline.

[4] = tested on: rat mammary adenocarcinoma MTF7; assay: Experimental metastasis of rat mammary adenocarcinoma, rats treated i.v.; format: in vivo, Fischer (F344/CDL) rats; conditions: for Lung Metastases per rat, Median No.: 0.1 ml of 10 mg/ml i.v. 8 h before and 16 h after 5×10^4 MTF7 cells, 30 days; for effectiveness against lung tumor colonies of mammary carcinoma, in words: i.v. treatment of rats
Experimental: Inbred 8-week-old female Fischer (F344/CDL) rats were supplied by the Charles River Breeding Laboratories (Kingston, N.Y.). Animals were quarantined for 7 days before use and feed standard rodent chow and unchlorinated spring water ad libitum. They were maintained under guidelines set forth by the University of Texas M. D. Anderson Cancer Center and the Institute of Laboratory Animal Resources, National Research Council. […] The cells grown at 37° C. in an atmosphere of 5% CO2 in humidified air in an 1:1 mixture of Dulbecco's modified minimum essential media and Ham's F12 media containing 10% fetal bovine serum and no antibiotics in 100 mm-diam. tissue culture plates.
The cells used in this study were in exponential growth phase and were from passages 14 to 20 in vitro and were free of mycoplasma and viral contamination.
Rats (9 per group) were injected i.v. (lateral tail vein) with 0.1 ml of 10 mg/ml solution of heparin, N-acetylated-N-desulfated heparin, or carboxyl-reduced heparin. Eight hours later, the same rats were injected i.v. with 5×10^4 MTF7 mammary carcinoma cells suspended in 0.2 ml serum-free media. Sixteen hours after injections of carcinoma cells, rats were treated with unmodified or chemically modified heparin at the same dose as the previous treatment 8 hours prior to the injection of carcinoma cells.
Rats were killed 30 days after the initial injection of carcinoma cells and examined for the number of lung tumor colonies, that should represent the degree of metastatic spread of mammary carcinoma cells.

melanoma heparanase = conditions: cited from earlier work
B16-F10 melanoma cells = assay: Invasion of organ-cultured lung tissues by melanoma cells; format: cell-based; conditions: organ-cultured minced mouse lung
Source text: FIG. 10: Effects of modified heparins on the B16-F10 melanoma cell-invasionof isolated mouse lung tissues in vitro. The experimental conditions were the same as the adhesion experiments. The invaded cells were counted on 4 μm sections under a light microscope. (See Nicolson et al., (1985) Invasion Metastasis, 5:144-158, for detailed methods.)
The effects of these glycosaminoglycan derivates on organ-specific adhesion and invasion of B16 melanoma cells were studied by using primary organ culture techniques in vitro. Minced lung tissues (0.5-1.0 cubic mm) from C57BL/6 mice were placed in glass vials and incubated in HEPES-buffered Dulbecco's modified minimum essential media containing 10% fetal bovine serum and 50 ug/ml gentamycin under continuous gyration at 66 rpm. After the medium was changed to a fresh medium without gentamycin, B16-F10 melanoma cells were added at a final concentration of 100,000/ml with or without various modified heparins. After various incubation times, the tissues were fixed in buffered formalin and processed for light microscopy. The adhesion and invasion of the tumor cells were examined on […] sections stained with hematoxylin and eosin.

B16-BL6 melanoma cells [5] = assay: 3H-thymidine incorporation, growth of melanoma cells in tissue culture; format: cell-based, mouse; conditions: with or without 5% fetal bovine serum; 48 h exposure
Experimental: FIG. 7: Effects of chemically modified heparins on the incorporation of ^3 H-thymidine to B16-BL6 melanoma cells grown in tissue culture.
In order to assess a possibility that the effects of modified heparins on the blood-borne lung colonization of B16 melanoma cells were due to their direct toxic effects on the cells, the growth of B16 melanoma in the presence or absence of modified heparins were examined in vitro. B16-BL6 melanoma cells were seeded in multiwell tissue culture plates at a density 10,000 per each 1 cm well in the presence or absence of 5% fetal bovine serum. Six hours later, modified heparins were added, then 24 hours later, ^3 H thymidine was added to a final concentration 5 uCi/ml. After further 24 hour incubation, trichloroacetic acid-insoluble materials were collected, dissolved in 1M sodium hydroxide solution, neutralized and counted on a liquid scintillation counter.

B16-BL6 cells = assay: Adhesion of melanoma cells to endothelial cell monolayers; format: cell-based, mouse; conditions: B16 cells pretreated 2 hrs, continuous presence of compounds, 37° C.
Experimental: FIG. 8: Adhesion of B16 melanoma cells to bovine aortic endothelial cell monolayers. FIG. 8(a) B16 melanoma cells were pretreated with modified heparins at room temperature for 2 hrs, and the adhesion assays were performed in the continuous presence of these compounds at 37° C. FIG. 8(b) Endothelial cells were pretreated with modified heparins at 37° C. for 2 hrs, then adhesion assays were performed. (See Nicolson and Custead, (1985) Cancer Res. 45:331-336, for the methods
One of the most critical steps in the tumor cell-microvascular endothelium interaction during metastatic lung colonization of melanoma cells is the adhesive interaction of melanoma cells with endothelial cells. The effects of modified heparins on the adhesion of B16 melanoma to the cell monolayer and to the extracellular matrix of lung capillary endothelial cells were studied in vitro. The endothelial cells were grown in tissue culture and the extracellular matrices were isolated as described in Example 8.

[6] = tested on: vascular smooth muscle cells; conditions: cited from earlier work

N- and O-desulfated heparin
inhibition of degradation of HS by heparanase (HPLC assay) (B16 melanoma heparanase [1]): failed to inhibit degradation
heparanase inhibitory activity (solid-phase assay, release of 3H-HS fragments) (B16 melanoma heparanase [2]): failed to how any inhibitory activity

N-resulfated N- and O-desulfated heparin
inhibition of degradation of HS by heparanase (HPLC assay) (B16 melanoma heparanase [1]): partially restored
anticoagulation activity relative to unmodified heparin (blood coagulation): less than 1%
degradation of sulfated molecules of endothelial matrix by melanoma cells (B16-BL6 melanoma): effectively blocked the degradation
Number of colonies (median), Exp 2 (B16-BL6 melanoma cells [3]): 8
heparanase inhibitory activity (solid-phase assay, release of 3H-HS fragments) (B16 melanoma heparanase [2]): partial restoration of activity
Number of lung colonies, Median (B16 melanoma cells): 36

Heparin [reference compound]
inhibition of degradation of HS by heparanase (HPLC assay) (B16 melanoma heparanase [1]): no degradation was observed
Lung Metastases per rat, Median No. [4]: 9
effectiveness against lung tumor colonies of mammary carcinoma, in words [4]: most effective
inhibition of HS degradation by B16 cell extracts (melanoma heparanase): inhibited HS degradation
degradation of sulfated molecules of endothelial matrix by melanoma cells (B16-BL6 melanoma): inhibited the degradation
spontaneous (non-enzymatic) release of 35S labeled macromolecules (B16-BL6 melanoma; in the absence of B16 melanoma cells): apparently induced spontaneous release; also recorded: induced non-enzymatic release
number of visible melanoma colonies in lung, in words (B16-BL6 melanoma cells [3]; 20 days after injection of preincubated cells): greater
Number of colonies (median), Exp 1 (B16-BL6 melanoma cells [3]): 16
Number of colonies (median), Exp 2 (B16-BL6 melanoma cells [3]): 0
Number of colonies, Exp 1 (individual mice) (B16-BL6 melanoma cells [3]): 174
heparanase inhibitory activity (solid-phase assay, release of 3H-HS fragments) (B16 melanoma heparanase [2]): consistent with those of the HPLC assay
invasion of B16 melanoma cells to lung tissues (B16-F10 melanoma cells): inhibited invasion
incorporation of 3H-thymidine to B16 cells (B16-BL6 melanoma cells [5]): no significant effects
Number of lung colonies, Median (B16 melanoma cells): 30
establishment of metastatic tumor colonies in the lungs, in words (B16 melanoma cells): inhibited formation of lung metastases
time course of adhesion to endothelial cell monolayer, melanoma cells pretreated (B16-BL6 cells): None of these compounds, including intact heparin, significantly altered

completely N-desulfated heparin
inhibition of degradation of HS by heparanase (HPLC assay) (B16 melanoma heparanase [1]): failed to inhibit degradation
anti-proliferative (growth inhibitory) activity [6]: lost their anti-proliferative activity
heparanase inhibitory activity (solid-phase assay, release of 3H-HS fragments) (B16 melanoma heparanase [2]): failed to how any inhibitory activity

N-acetylated N-desulfated heparin
anticoagulation activity relative to unmodified heparin (blood coagulation): less than 1%
anti-proliferative (growth inhibitory) activity [6]: retained full growth inhibitory properties
Lung Metastases per rat, Median No. [4]: 29
effectiveness against lung tumor colonies of mammary carcinoma, in words [4]: also effective
Number of colonies (median), Exp 1 (B16-BL6 melanoma cells [3]): 43
Number of colonies (median), Exp 2 (B16-BL6 melanoma cells [3]): 5
Number of colonies, Exp 1 (individual mice) (B16-BL6 melanoma cells [3]): 199
heparanase inhibitory activity (solid-phase assay, release of 3H-HS fragments) (B16 melanoma heparanase [2]): partially restored
incorporation of 3H-thymidine to B16 cells (B16-BL6 melanoma cells [5]): no significant effects
Number of lung colonies, Median (B16 melanoma cells): 60

N-desulfated N-resulfated heparin [reference compound]
anti-proliferative (growth inhibitory) activity [6]: retained full growth inhibitory properties

carboxy-reduced heparin
anticoagulation activity relative to unmodified heparin (blood coagulation): less than 1%
Lung Metastases per rat, Median No. [4]: 25
effectiveness against lung tumor colonies of mammary carcinoma, in words [4]: also effective
degradation of sulfated molecules of endothelial matrix by melanoma cells (B16-BL6 melanoma): effectively blocked the degradation
Number of colonies (median), Exp 1 (B16-BL6 melanoma cells [3]): 29
Number of colonies (median), Exp 2 (B16-BL6 melanoma cells [3]): 51
Number of colonies, Exp 1 (individual mice) (B16-BL6 melanoma cells [3]): 53
heparanase inhibitory activity (solid-phase assay, release of 3H-HS fragments) (B16 melanoma heparanase [2]): weaker inhibitory activity than heparin
incorporation of 3H-thymidine to B16 cells (B16-BL6 melanoma cells [5]): no significant effects
Number of lung colonies, Median (B16 melanoma cells): 6
establishment of metastatic tumor colonies in the lungs, in words (B16 melanoma cells): most effective

N-acetylated N- and O-desulfated heparin
heparanase inhibitory activity (solid-phase assay, release of 3H-HS fragments) (B16 melanoma heparanase [2]): did not, however, restore the inhibitory activity
